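Values below derive from 48-hour exposures of cells grown in 96-well plates, with endpoints linearly interpolated between the two concentrations bracketing the appropriate inhibition level. GI50: concentration for 50% inhibition of growth. TGI marks complete inhibition of growth.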
Legend:
Assay in all cases: NCI tumour cell line growth inhibition, 48 h
[1] = tested on: DMS 273 small cell lung
[2] = tested on: HOP-18 NSCLC
[3] = tested on: KM20L2 colon
[4] = tested on: LXFL 529 NSCLC
[5] = tested on: XF 498 CNS
[6] = tested on: P388 leukemia
[7] = tested on: P388/ADR leukemia
[8] = tested on: SN12K1 renal
[9] = tested on: RXF-631 renal

C=C1C(=O)OC2/C=C(\CO)C3OC3C3OC3(C)CC(OC(=O)/C(=C/C)COC(C)=O)C12 (configuration not stated)
TGI [1]: 10.5 µM
TGI [2]: 21.6 µM
TGI [3]: 20.5 µM
TGI [4]: 2.17 µM
TGI [5]: 4.54 µM

Cc1c2cnccc2c(C)c2c1c1ccccc1n2CCCCCCCl
TGI [1]: > 50 µM
TGI [2]: > 7.93 µM
TGI [3]: > 50 µM
TGI [6]: 32.6 µM
TGI [7]: > 50 µM
TGI [8]: > 50 µM
TGI [5]: > 50 µM

O=C1Sc2sc(=S)sc2SC1c1ccccc1 (configuration not stated)
TGI [1]: > 100 µM
TGI [2]: > 100 µM
TGI [3]: > 100 µM
TGI [6]: > 67.2 µM
TGI [7]: > 67.7 µM
TGI [8]: > 65.2 µM
TGI [5]: > 79.1 µM

O=C(N/N=C/c1cc(Cl)cc(Cl)c1[O-])c1ccccc1O.O=C(N/N=C/c1cc(Cl)cc(Cl)c1[O-])c1ccccc1O.[Mn+2]
GI50 [3]: 2.78 µM

COc1ccc2[nH]c(=O)cc(C)c2c1[N+](=O)[O-]
TGI [1]: > 100 µM
TGI [3]: > 100 µM
TGI [4]: > 100 µM
TGI [9]: > 100 µM
TGI [5]: > 100 µM

C=C1C(=O)OC2/C=C(CO)/C=C\C3OC3(C)CC(OC(=O)/C(C)=C/COC(C)=O)C12 (configuration not stated)
TGI [1]: 4.3 µM
TGI [2]: 22.1 µM
TGI [3]: 17 µM
TGI [4]: 4.27 µM
TGI [9]: 12.1 µM
TGI [5]: 6.47 µM

CSc1nc2c(ncn2C2OC(CO)C(O)C(O)C2O)c(=O)n1C (configuration not stated)
TGI [1]: > 100 µM
TGI [2]: > 100 µM
TGI [3]: > 100 µM
TGI [6]: > 100 µM
TGI [8]: > 100 µM
TGI [5]: > 100 µM
